According to patent publication US12514251B2, “Fused heterocyclic compounds and their use as pest control agents” (priority 2020, dated 2026):

Columns and labels:
Format in all cases: in vivo
Plutella xylostella = test: Plutella xylostella, leaf dip method; conditions: foliar, cabbage leaf dip, second instar larvae, 72 h after release, dead + moribund vs untreated control, read-out: percent mortality
In short: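 Cabbage leaves were dipped for 10 s in compound diluted with 0.01% Triton-X, shade dried and offered singly to second instar larvae. Trays were held at 25° C. and 70% relative humidity. Dead plus moribund larvae were scored at 72 h, and percent mortality was expressed relative to untreated control.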

Spodoptera litura = test: Spodoptera litura, diet incorporation method; conditions: third instar larvae, 96 h after release, dead + moribund vs untreated control, read-out: percent mortality
Protocol: (§1) The diet incorporation method was used, in which the required quantity of the test compound was weighed and dissolved in a tube containing solvent solution. The tube was put on a vortex at 2000 rpm for 90 min for proper mixing. Semi-synthetic diet was incorporated into this solution when the temperature was approximately 50° C. in the bioassay containers. Compound and diet were stirred thoroughly for proper mixing and allowed to cool for 30 min. The solidified diet was cut into equal pieces, and then each piece was transferred into one cell of a bio-assay tray. A single starved third instar larva was released into each of the cells of the bioassay trays and the tray was covered with the lid. The bio-assay trays were then kept under laboratory conditions at a temperature of 25° C. and a relative humidity of 70%. Observations on dead, moribund and alive larvae were recorded 96 h after the release of larvae. Percent mortality was calculated by combining dead and moribund larvae and comparing the result to the one of the untreated control.

Helicoverpa armigera = test: Helicoverpa armigera, diet incorporation method; conditions: third instar larvae, 96 h after release, dead + moribund vs untreated control, read-out: percent mortality
Protocol: as §1, with “covered with a lid. The” for “covered with the lid. The”, “release of the larvae. Percent” for “release of larvae. Percent”

Q: Which mortality at 300 ppm (Plutella xylostella) does the source give for CCS(=O)(=O)c1cc(-c2ccc(Cl)c(Cl)c2)cnc1-c1ccn2nc(C(F)(F)F)cc2n1 [Compound 155, 5-(5-(3,4-dichlorophenyl)-3-(ethylsulfonyl)pyridin-2-yl)-2-(trifluoromethyl)pyrazolo[1,5-a]pyrimidine] here?
A: The mortality at 300 ppm was ≥ 70%.

Q: And the mortality at 300 ppm (Spodoptera litura)?
A: The mortality at 300 ppm was ≥ 70%.

Q: And the mortality at 300 ppm (Helicoverpa armigera)?
A: Its mortality at 300 ppm is ≥ 70%.

Q: How did the mortality at 300 ppm (Plutella xylostella) turn out when CCS(=O)(=O)c1cc(-c2ccc(F)cc2)cnc1-c1ccn2nc(C(F)(F)F)cc2n1 [Compound 94, 5-(3-(ethylsulfonyl)-5-(4-fluorophenyl)pyridin-2-yl)-2-(trifluoromethyl)pyrazolo[1,5-a]pyrimidine] was run?
A: The mortality at 300 ppm was ≥ 70%.

Q: And the mortality at 300 ppm (Spodoptera litura)?
A: The mortality at 300 ppm was ≥ 70%.

Q: What about the mortality at 300 ppm (Helicoverpa armigera) of the same compound?
A: Its mortality at 300 ppm is ≥ 70%.

Q: Which mortality at 300 ppm (Plutella xylostella) does the source give for CCS(=O)(=O)c1cc(-c2ccc(OC(F)(F)C(F)F)cc2)cnc1-c1ccn2nc(C(F)(F)F)cc2n1 [Compound 96, 5-(3-(ethylsulfonyl)-5-(4-(1,1,2,2-tetrafluoroethoxy)phenyl)pyridin-2-yl)-2-(trifluoromethyl)pyrazolo[1,5-a]pyrimidine] here?
A: Its mortality at 300 ppm is ≥ 70%.

Q: What about the mortality at 300 ppm (Spodoptera litura) of the same compound?
A: Its mortality at 300 ppm is ≥ 70%.

Q: And the mortality at 300 ppm (Helicoverpa armigera)?
A: The mortality at 300 ppm was ≥ 70%.

Q: For CCS(=O)(=O)c1cc(-c2ccn3nc(C(F)(F)F)cc3n2)cnc1-n1ccc(C(F)(F)F)n1 [Compound 37, 5-(5-(ethylsulfonyl)-6-(3-(trifluoromethyl)-1H-pyrazol-1-yl)pyridin-3-yl)-2-(trifluoromethyl)pyrazolo[1,5-a]pyrimidine], which mortality at 300 ppm (Plutella xylostella) is on record?
A: Its mortality at 300 ppm is ≥ 70%.

Q: What about the mortality at 300 ppm (Spodoptera litura) of the same compound?
A: The mortality at 300 ppm was ≥ 70%.

Q: How did the mortality at 300 ppm (Plutella xylostella) turn out when CCS(=O)(=O)c1cc(-c2ccc(OC(F)(F)F)cc2)cnc1-c1ccn2nc(C(F)(F)F)nc2n1 [Compound 100, 5-(3-(ethylsulfonyl)-5-(4-(trifluoromethoxy)phenyl)pyridin-2-yl)-2-(trifluoromethyl)-[1,2,4]triazolo[1,5-a]pyrimidine] was run?
A: Its mortality at 300 ppm is ≥ 70%.

Q: And the mortality at 300 ppm (Spodoptera litura)?
A: The mortality at 300 ppm was ≥ 70%.

Q: What about the mortality at 300 ppm (Helicoverpa armigera) of the same compound?
A: Its mortality at 300 ppm is ≥ 70%.

Q: How did the mortality at 300 ppm (Plutella xylostella) turn out when CCS(=O)(=O)c1cc(C2CC2)cnc1-c1ccn2nc(C(F)(F)F)cc2n1 [Compound 136, 5-(5-cyclopropyl-3-(ethylsulfonyl)pyridin-2-yl)-2-(trifluoromethyl)pyrazolo[1,5-a]pyrimidine] was run?
A: The mortality at 300 ppm was ≥ 70%.

Q: And the mortality at 300 ppm (Spodoptera litura)?
A: Its mortality at 300 ppm is ≥ 70%.

Q: And the mortality at 300 ppm (Helicoverpa armigera)?
A: Its mortality at 300 ppm is ≥ 70%.

Q: CCS(=O)(=O)c1cc(-c2cc(Cl)cc(Cl)c2)cnc1-c1ccn2nc(C(F)(F)F)cc2n1 [Compound 76, 5-(5-(3,5-dichlorophenyl)-3-(ethylsulfonyl)pyridin-2-yl)-2-(trifluoromethyl)pyrazolo[1,5-a]pyrimidine] was tested. Which mortality at 300 ppm (Spodoptera litura) did it give?
A: Its mortality at 300 ppm is ≥ 70%.

Q: What about the mortality at 300 ppm (Helicoverpa armigera) of the same compound?
A: The mortality at 300 ppm was ≥ 70%.

Q: With CCS(=O)(=O)c1cc(-c2ccc(Cl)c(F)c2)cnc1-c1ccn2nc(C(F)(F)F)cc2n1 [Compound 126, 5-(5-(4-chloro-3-fluorophenyl)-3-(ethylsulfonyl)pyridin-2-yl)-2-(trifluoromethyl)pyrazolo[1,5-a]pyrimidine] as the compound, how does the mortality at 300 ppm (Plutella xylostella) read?
A: The mortality at 300 ppm was ≥ 70%.

Q: And the mortality at 300 ppm (Spodoptera litura)?
A: The mortality at 300 ppm was ≥ 70%.

Q: What about the mortality at 300 ppm (Helicoverpa armigera) of the same compound?
A: Its mortality at 300 ppm is ≥ 70%.

Q: For CCS(=O)(=O)c1ccc(-c2ccc(OC(F)(F)F)cc2)nc1-c1ccn2nc(C(F)(F)F)cc2n1 [Compound 17, 5-(3-(ethylsulfonyl)-6-(4-(trifluoromethoxy)phenyl)pyridin-2-yl)-2-(trifluoromethyl)pyrazolo[1,5-a]pyrimidine], which mortality at 300 ppm (Plutella xylostella) is on record?
A: The mortality at 300 ppm was ≥ 70%.

Q: What about the mortality at 300 ppm (Spodoptera litura) of the same compound?
A: Its mortality at 300 ppm is ≥ 70%.

Q: Which results are given for CCS(=O)(=O)c1cc(-c2cc(F)cc(Cl)c2)cnc1-c1ccn2nc(C(F)(F)F)cc2n1 [Compound 111, 5-(5-(3-chloro-5-fluorophenyl)-3-(ethylsulfonyl)pyridin-2-yl)-2-(trifluoromethyl)pyrazolo[1,5-a]pyrimidine]?
A: mortality at 300 ppm (Plutella xylostella): ≥ 70%; mortality at 300 ppm (Spodoptera litura): ≥ 70%; mortality at 300 ppm (Helicoverpa armigera): ≥ 70%

Q: What does the source list for CCS(=O)(=O)c1cc(-c2ccc(F)c(Cl)c2)cnc1-c1ccn2nc(C(F)(F)F)cc2n1 [Compound 127, 5-(5-(3-chloro-4-fluorophenyl)-3-(ethylsulfonyl)pyridin-2-yl)-2-(trifluoromethyl)pyrazolo[1,5-a]pyrimidine]?
A: mortality at 300 ppm (Plutella xylostella): ≥ 70%; mortality at 300 ppm (Spodoptera litura): ≥ 70%; mortality at 300 ppm (Helicoverpa armigera): ≥ 70%

Q: CCS(=O)(=O)c1cc(-c2ncccn2)cnc1-c1ccn2nc(C(F)(F)F)cc2n1 [Compound 231, 5-(3-(ethylsulfonyl)-5-(pyrimidin-2-yl)pyridin-2-yl)-2-(trifluoromethyl)pyrazolo[1,5-a]pyrimidine] was tested. Which mortality at 300 ppm (Plutella xylostella) did it give?
A: Its mortality at 300 ppm is ≥ 70%.

Q: What about the mortality at 300 ppm (Spodoptera litura) of the same compound?
A: The mortality at 300 ppm was ≥ 70%.

Q: And the mortality at 300 ppm (Helicoverpa armigera)?
A: Its mortality at 300 ppm is ≥ 70%.

Q: CCS(=O)(=O)c1cc(-c2ccc(Cl)cc2)cnc1-c1ccn2nc(C(F)(F)F)nc2n1 [Compound 101, 5-(5-(4-chlorophenyl)-3-(ethylsulfonyl)pyridin-2-yl)-2-(trifluoromethyl)-[1,2,4]triazolo[1,5-a]pyrimidine] was tested. Which mortality at 300 ppm (Plutella xylostella) did it give?
A: The mortality at 300 ppm was ≥ 70%.

Q: And the mortality at 300 ppm (Spodoptera litura)?
A: The mortality at 300 ppm was ≥ 70%.

Q: For CCS(=O)(=O)c1cc(-c2cc(F)cc(F)c2)cnc1-c1ccn2nc(C(F)(F)F)cc2n1 [Compound 125, 5-(5-(3,5-difluorophenyl)-3-(ethylsulfonyl)pyridin-2-yl)-2-(trifluoromethyl)pyrazolo[1,5-a]pyrimidine], which mortality at 300 ppm (Plutella xylostella) is on record?
A: The mortality at 300 ppm was ≥ 70%.

Q: And the mortality at 300 ppm (Spodoptera litura)?
A: The mortality at 300 ppm was ≥ 70%.

Q: CCS(=O)(=O)c1cc(-c2ccc(OC(F)(F)F)cc2)cnc1-c1ccn2nc(C(F)(F)F)cc2n1 [Compound 66, 5-(3-(ethylsulfonyl)-5-(4-(trifluoromethoxy)phenyl)pyridin-2-yl)-2-(trifluoromethyl)pyrazolo[1,5-a]pyrimidine] was tested. Which mortality at 300 ppm (Plutella xylostella) did it give?
A: The mortality at 300 ppm was ≥ 70%.

Q: And the mortality at 300 ppm (Spodoptera litura)?
A: Its mortality at 300 ppm is ≥ 70%.

Q: And the mortality at 300 ppm (Helicoverpa armigera)?
A: The mortality at 300 ppm was ≥ 70%.

Q: CCS(=O)(=O)c1cc(-n2nc(C(F)(F)F)cc2C)cnc1-c1ccn2nc(C(F)(F)F)cc2n1 [Compound 38, 5-(3-(ethylsulfonyl)-5-(5-methyl-3-(trifluoromethyl)-1H-pyrazol-1-yl)pyridin-2-yl)-2-(trifluoromethyl)pyrazolo[1,5-a]pyrimidine] was tested. Which mortality at 300 ppm (Plutella xylostella) did it give?
A: Its mortality at 300 ppm is ≥ 70%.

Q: And the mortality at 300 ppm (Spodoptera litura)?
A: The mortality at 300 ppm was ≥ 70%.

Q: What about the mortality at 300 ppm (Helicoverpa armigera) of the same compound?
A: Its mortality at 300 ppm is ≥ 70%.

Q: Which results are given for CCS(=O)(=O)c1cc(Br)cnc1-c1ccn2nc(C(F)(F)F)cc2n1 [Compound 29, 5-(5-bromo-3-(ethylsulfonyl)pyridin-2-yl)-2-(trifluoromethyl)pyrazolo[1,5-a]pyrimidine]?
A: mortality at 300 ppm (Plutella xylostella): ≥ 70%; mortality at 300 ppm (Spodoptera litura): ≥ 70%; mortality at 300 ppm (Helicoverpa armigera): ≥ 70%

Q: With CCS(=O)(=O)c1cc(C=CC2CC2)cnc1-c1ccn2nc(C(F)(F)F)cc2n1 [Compound 205, 5-(5-(2-cyclopropylvinyl)-3-(ethylsulfonyl)pyridin-2-yl)-2-(trifluoromethyl)pyrazolo[1,5-a]pyrimidine] as the compound, how does the mortality at 300 ppm (Plutella xylostella) read?
A: Its mortality at 300 ppm is ≥ 70%.

Q: And the mortality at 300 ppm (Spodoptera litura)?
A: The mortality at 300 ppm was ≥ 70%.

Q: What does the source list for CCS(=O)(=O)c1cc(-c2ccn3nc(C(F)(F)F)cc3n2)cnc1-n1nccn1 [Compound 39, 5-(5-(ethylsulfonyl)-6-(2H-1,2,3-triazol-2-yl)pyridin-3-yl)-2-(trifluoromethyl)pyrazolo[1,5-a]pyrimidine]?
A: mortality at 300 ppm (Plutella xylostella): ≥ 70%; mortality at 300 ppm (Spodoptera litura): ≥ 70%; mortality at 300 ppm (Helicoverpa armigera): ≥ 70%

Q: Which mortality at 300 ppm (Plutella xylostella) does the source give for CCS(=O)(=O)c1cc(-c2cccc(C(F)(F)F)c2)cnc1-c1ccn2nc(C(F)(F)F)cc2n1 [Compound 156, 5-(3-(ethylsulfonyl)-5-(3-(trifluoromethyl)phenyl)pyridin-2-yl)-2-(trifluoromethyl)pyrazolo[1,5-a]pyrimidine] here?
A: Its mortality at 300 ppm is ≥ 70%.

Q: What about the mortality at 300 ppm (Spodoptera litura) of the same compound?
A: Its mortality at 300 ppm is ≥ 70%.

Q: And the mortality at 300 ppm (Helicoverpa armigera)?
A: Its mortality at 300 ppm is ≥ 70%.

Q: What does the source list for CCS(=O)(=O)c1ccc(-n2cnc(C(F)(F)F)n2)nc1-c1ccn2nc(C(F)(F)F)cc2n1 [Compound 4, 5-(3-(ethylsulfonyl)-6-(3-(trifluoromethyl)-1H-1,2,4-triazol-1-yl)pyridin-2-yl)-2-(trifluoromethyl)pyrazolo[1,5-a]pyrimidine]?
A: mortality at 300 ppm (Plutella xylostella): ≥ 70%; mortality at 300 ppm (Spodoptera litura): ≥ 70%; mortality at 300 ppm (Helicoverpa armigera): ≥ 70%

Q: What does the source list for CCS(=O)(=O)c1ccc(-n2ncn(-c3cc(Cl)cc(Cl)c3)c2=O)nc1-c1ccn2nc(C(F)(F)F)cc2n1 [Compound 8, 4-(3,5-dichlorophenyl)-2-(5-(ethylsulfonyl)-6-(2-(trifluoromethyl)pyrazolo[1,5-a]pyrimidin-5-yl)pyridin-2-yl)-2,4-dihydro-3H-1,2,4-triazol-3-one]?
A: mortality at 300 ppm (Plutella xylostella): ≥ 70%; mortality at 300 ppm (Helicoverpa armigera): ≥ 70%
